In ChEMBL document CHEMBL5518186, “Discovery of the cereblon-recruiting tubulin PROTACs effective in overcoming Taxol resistance in vitro and in vivo” (Eur J Med Chem, 2024):
The source made the active and inactive calls. The calls are words filed in the database; no cut-off is given here.

Tests used:
[1] = system: HeLa; experiment: Antiproliferative activity against human HeLa cells incubated for 72 hrs; format: functional, cell-based
[2] = system: U-937; experiment: Antiproliferative activity against human U-937 cells incubated for 72 hrs; format: functional, cell-based; details: U-937, 72 h
[3] = system: MCF7; experiment: Antiproliferative activity against human MCF7 cells incubated for 72 hrs; format: functional, cell-based; details: MCF7, 72 h
[4] = system: MGC-803; experiment: Antiproliferative activity against human MGC-803 cells incubated for 72 hrs; format: functional, cell-based; details: MGC-803, 72 h
[5] = system: A549; experiment: Antiproliferative activity against human A549 cells incubated for 72 hrs; format: functional, cell-based; details: A549, 72 h
[6] = system: HepG2; experiment: Antiproliferative activity against human HepG2 cells incubated for 72 hrs; format: functional, cell-based; details: HepG2, 72 h
[7] = target: T1, Protein cereblon/Tubulin beta-3 chain (Homo sapiens, UniProt Q13509+Q96SW2); experiment: Protac activity at CRBN/beta3-tubulin in human A549/Taxol cells assessed as reduction in beta3-tubulin level incubated for 48 hrs by immunoblotting analysis; format: cell-based
[8] = target: T2, Protein cereblon-alpha tubulin (Homo sapiens) (UniProt P0DPH7+P68366+Q71U36+P68363+Q9BQE3+Q6PEY2+A6NHL2+Q9NY65+Q96SW2); experiment: (§1) Protac activity at CRBN/alpha-tubulin in human A549 cells assessed as reduction in alpha-tubulin level incubated for 48 hrs by immunoblotting analysis; format: cell-based
[9] = target: T3, Protein cereblon/Tubulin beta (Homo sapiens) (UniProt P68371+Q9H4B7+Q13509+P04350+Q3ZCM7+P07437+Q13885+Q9BVA1+Q9BUF5+Q96SW2+A6NNZ2); experiment: (§2) Protac activity at CRBN/beta-tubulin in human A549/Taxol cells assessed as reduction in beta-tubulin level incubated for 48 hrs by immunoblotting analysis; format: cell-based
[10] = target: Protein cereblon/Tubulin beta; experiment: as §2; format: cell-based
[11] = target: T3, Protein cereblon/Tubulin beta (Homo sapiens); experiment: Protac activity at CRBN/beta-tubulin in human A549 cells assessed as reduction in beta-tubulin level at 0.01 to 1 uM incubated for 48 hrs by immunoblotting analysis; format: cell-based; details: dose 0.01-1 µM
[12] = target: T1, Protein cereblon/Tubulin beta-3 chain; experiment: Protac activity at CRBN/beta3-tubulin in human A549 cells assessed as reduction in beta3-tubulin level at 0.01 to 1 uM incubated for 48 hrs by immunoblotting analysis; format: cell-based; details: dose 0.01-1 µM
Target sequence in this assay (Q13509 whole entry, looked up): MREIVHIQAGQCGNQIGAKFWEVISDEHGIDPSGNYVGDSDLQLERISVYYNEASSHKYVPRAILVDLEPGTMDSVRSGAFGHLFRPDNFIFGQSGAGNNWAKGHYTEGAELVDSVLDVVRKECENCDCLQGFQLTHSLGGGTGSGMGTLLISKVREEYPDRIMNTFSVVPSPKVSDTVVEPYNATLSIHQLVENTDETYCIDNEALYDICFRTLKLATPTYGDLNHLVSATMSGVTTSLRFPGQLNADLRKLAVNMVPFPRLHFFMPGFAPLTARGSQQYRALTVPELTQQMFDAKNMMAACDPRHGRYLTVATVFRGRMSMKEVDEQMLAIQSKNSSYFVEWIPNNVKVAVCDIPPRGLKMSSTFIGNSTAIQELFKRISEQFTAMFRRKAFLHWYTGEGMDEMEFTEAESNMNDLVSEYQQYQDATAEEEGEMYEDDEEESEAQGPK
Target sequence in this assay (Q96SW2 whole entry, looked up): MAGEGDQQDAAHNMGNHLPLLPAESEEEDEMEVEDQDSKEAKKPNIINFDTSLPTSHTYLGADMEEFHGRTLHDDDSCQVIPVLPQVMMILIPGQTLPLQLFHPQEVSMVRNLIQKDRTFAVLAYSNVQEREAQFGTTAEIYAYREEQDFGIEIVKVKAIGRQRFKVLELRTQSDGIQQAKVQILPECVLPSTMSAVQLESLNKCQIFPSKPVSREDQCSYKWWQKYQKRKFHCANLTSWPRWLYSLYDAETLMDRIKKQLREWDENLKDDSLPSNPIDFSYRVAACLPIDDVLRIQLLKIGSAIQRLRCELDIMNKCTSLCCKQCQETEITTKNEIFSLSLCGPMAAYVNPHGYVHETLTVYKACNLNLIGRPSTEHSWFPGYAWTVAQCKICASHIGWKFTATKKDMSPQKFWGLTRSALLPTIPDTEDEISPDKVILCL

[13] = target: T2, Protein cereblon-alpha tubulin (Homo sapiens); experiment: Protac activity at CRBN/alpha-tubulin in human A549 cells assessed as reduction in alpha-tubulin level at 0.01 to 1 uM incubated for 48 hrs by immunoblotting analysis; format: cell-based; details: dose 0.01-1 µM
[14] = target: T1, Protein cereblon/Tubulin beta-3 chain; experiment: Protac activity at CRBN/beta3-tubulin in human A549 cells assessed as reduction in beta3-tubulin level incubated for 48 hrs by immunoblotting analysis; format: cell-based
[15] = target: Protein cereblon-alpha tubulin; experiment: (§3) Protac activity at CRBN/alpha-tubulin in human A549/Taxol cells assessed as reduction in alpha-tubulin level incubated for 48 hrs by immunoblotting analysis; format: cell-based
[16] = target: T2, Protein cereblon-alpha tubulin (Homo sapiens); experiment: as §3; format: cell-based
[17] = target: T3, Protein cereblon/Tubulin beta (Homo sapiens); experiment: (§4) Protac activity at CRBN/beta-tubulin in human A549 cells assessed as reduction in beta-tubulin level incubated for 48 hrs by immunoblotting analysis; format: cell-based
[18] = target: Protein cereblon/Tubulin beta; experiment: as §4; format: cell-based
[19] = target: Protein cereblon-alpha tubulin; experiment: as §1; format: cell-based
[20] = target: T4, Estrogen receptor (Homo sapiens) (UniProt P03372); experiment: Induction of ER degradation (unknown origin)
T4 sequence (whole entry): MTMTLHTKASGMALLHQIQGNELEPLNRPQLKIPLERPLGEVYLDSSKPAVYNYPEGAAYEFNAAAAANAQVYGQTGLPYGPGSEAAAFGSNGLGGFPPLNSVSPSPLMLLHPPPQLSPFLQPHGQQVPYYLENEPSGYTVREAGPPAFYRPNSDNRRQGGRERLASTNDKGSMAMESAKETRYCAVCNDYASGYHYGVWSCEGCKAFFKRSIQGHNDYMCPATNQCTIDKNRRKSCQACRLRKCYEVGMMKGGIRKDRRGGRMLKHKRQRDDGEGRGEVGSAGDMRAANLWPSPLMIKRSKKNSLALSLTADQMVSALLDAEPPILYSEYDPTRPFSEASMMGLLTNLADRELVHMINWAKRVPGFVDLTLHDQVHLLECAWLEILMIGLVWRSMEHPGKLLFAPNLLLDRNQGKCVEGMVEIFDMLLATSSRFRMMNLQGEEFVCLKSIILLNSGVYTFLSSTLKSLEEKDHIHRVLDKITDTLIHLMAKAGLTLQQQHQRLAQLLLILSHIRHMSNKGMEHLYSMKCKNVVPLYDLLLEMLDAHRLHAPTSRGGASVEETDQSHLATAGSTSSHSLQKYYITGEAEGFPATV

| SMILES | IC50 [1] [nM] | IC50 [2] [nM] | IC50 [3] [nM] | IC50 [4] [nM] | IC50 [5] [nM] | IC50 [6] [nM] | other results |
| --- | --- | --- | --- | --- | --- | --- | --- |
| COc1ccc(/C=C\c2cc(OC)c(OC)c(OC)c2)cc1OCc1cn(CCCCC(=O)Nc2cccc3c2C(=O)N(C2CCC(=O)NC2=O)C3=O)nn1 (centres undefined) | > 5000 | 1620 | 4060 | > 5000 | > 5000 | > 5000 |  |
| COc1ccc(/C=C\c2cc(OC)c(OC)c(OC)c2)cc1OC(=O)CCCCN1C(=O)CCC(N2Cc3c(N)cccc3C2=O)C1=O (centres undefined) | > 5000 | > 5000 | > 5000 | > 5000 | > 5000 | > 5000 |  |
| COc1ccc(/C=C\c2cc(OC)c(OC)c(OC)c2)cc1OC(=O)CCCCOCCc1cn(CCCCC(=O)Nc2cccc3c2C(=O)N(C2CCC(=O)NC2=O)C3=O)nn1 (centres undefined) | 1510 | 800 | 263 | 175 | 374 | 213 |  |
| COc1ccc(/C=C\c2cc(OC)c(OC)c(OC)c2)cc1OC(=O)CCCCCOCCc1cn(CCCCCC(=O)Nc2cccc3c2C(=O)N(C2CCC(=O)NC2=O)C3=O)nn1 (centres undefined) | > 5000 | > 5000 | 2300 | 1790 | 1760 | 1990 |  |
| COc1ccc(/C=C\c2cc(OC)c(OC)c(OC)c2)cc1OC(=O)CCCOCCc1cn(CCCCCC(=O)Nc2cccc3c2C(=O)N(C2CCC(=O)NC2=O)C3=O)nn1 (centres undefined) | > 5000 | > 5000 | 2980 | 3100 | 3900 | 2880 |  |
| COc1ccc(/C=C\c2cc(OC)c(OC)c(OC)c2)cc1OC(=O)CCCOCCc1cn(CCCC(=O)Nc2cccc3c2C(=O)N(C2CCC(=O)NC2=O)C3=O)nn1 (centres undefined) | > 5000 | > 5000 | 4230 | 2350 | 3750 | 3120 |  |
| COc1ccc(/C=C\c2cc(OC)c(OC)c(OC)c2)cc1OC(=O)CCCOCCc1cn(CCCCC(=O)Nc2cccc3c2C(=O)N(C2CCC(=O)NC2=O)C3=O)nn1 (centres undefined) | > 5000 | > 5000 | > 5000 | > 5000 | > 5000 | > 5000 |  |
| COc1ccc(/C=C\c2cc(OC)c(OC)c(OC)c2)cc1OC(=O)CCNc1cccc2c1C(=O)N(C1CCC(=O)NC1=O)C2=O (centres undefined) | > 5000 | > 5000 | > 5000 | > 5000 | > 5000 | > 5000 |  |
| COc1ccc(/C=C\c2cc(OC)c(OC)c(OC)c2)cc1OC(=O)CN1C(=O)CCC(N2Cc3c(N)cccc3C2=O)C1=O (centres undefined) | > 5000 | > 5000 | > 5000 | > 5000 | > 5000 | > 5000 |  |
| COc1ccc(/C=C\c2cc(OC)c(OC)c(OC)c2)cc1OC(=O)CCCCCN1C(=O)CCC(N2Cc3c(N)cccc3C2=O)C1=O (centres undefined) | > 5000 | > 5000 | > 5000 | > 5000 | > 5000 | > 5000 |  |
| O=C1CC[C@H](N2Cc3cc(N4CCN(CC5CCN(c6ccc([C@@H]7c8ccc(O)cc8CC[C@@H]7c7ccccc7)cc6)CC5)CC4)ccc3C2=O)C(=O)N1 |  |  |  |  |  |  | Activity [20]: < 89% |
| COc1ccc(/C=C\c2cc(OC)c(OC)c(OC)c2)cc1OC(=O)CCCCCOCCc1cn(CCCC(=O)Nc2cccc3c2C(=O)N(C2CCC(=O)NC2=O)C3=O)nn1 (centres undefined) | 1900 | > 5000 | 2380 | 1530 | 1830 | 2300 |  |

Further lines, with some results ahead:

| IC50 [1] [nM] | IC50 [2] [nM] | IC50 [3] [nM] | IC50 [4] [nM] | IC50 [5] [nM] | IC50 [6] [nM] | SMILES | other results |
| --- | --- | --- | --- | --- | --- | --- | --- |
| 1270 | 4320 | 247 | 61 | 544 | 128 | COc1ccc(/C=C\c2cc(OC)c(OC)c(OC)c2)cc1OC(=O)CCCCOCCc1cn(CCCC(=O)Nc2cccc3c2C(=O)N(C2CCC(=O)NC2=O)C3=O)nn1 (centres undefined) |  |
| 23 | 6 | 17 | 9 | 19 | 7 | COc1ccc(/C=C\c2cc(OC)c(OC)c(OC)c2)cc1OC(=O)CCCCCNc1cccc2c1C(=O)N(C1CCC(=O)NC1=O)C2=O (centres undefined) | Activity [7]: Dose-Dependent Effect; Activity [8]: Dose-Dependent Effect; Activity [9]: Dose-Dependent Effect; DC50 [10]: 52 nM; Activity [11]: Active; Activity [12]: Active; Activity [13]: Active; Activity [14]: Dose-Dependent Effect; DC50 [14]: 294 nM; DC50 [15]: 114 nM; Activity [16]: Dose-Dependent Effect; Activity [17]: Dose-Dependent Effect; DC50 [18]: 165 nM |
| > 5000 | > 5000 | > 5000 | > 5000 | > 5000 | > 5000 | COc1ccc(/C=C\c2cc(OC)c(OC)c(OC)c2)cc1OC(=O)CCCN1C(=O)CCC(N2Cc3c(N)cccc3C2=O)C1=O (centres undefined) |  |
| > 5000 | > 5000 | 2350 | 1400 | 2440 | 1920 | COc1ccc(/C=C\c2cc(OC)c(OC)c(OC)c2)cc1OC(=O)CCCCCOCCc1cn(CCCCC(=O)Nc2cccc3c2C(=O)N(C2CCC(=O)NC2=O)C3=O)nn1 (centres undefined) |  |
| 23 | 22 | 17 | 8 | 12 | 6 | COc1ccc(/C=C\c2cc(OC)c(OC)c(OC)c2)cc1OC(=O)CCCCNc1cccc2c1C(=O)N(C1CCC(=O)NC1=O)C2=O (centres undefined) | Activity [7]: Dose-Dependent Effect; DC50 [7]: 18 nM; DC50 [19]: 883 nM; Activity [8]: Dose-Dependent Effect; Activity [9]: Dose-Dependent Effect; DC50 [10]: 9 nM; Activity [11]: Active; Activity [12]: Active; Activity [13]: Active; Activity [14]: Dose-Dependent Effect; DC50 [15]: 105 nM; Activity [16]: Dose-Dependent Effect; Activity [17]: Dose-Dependent Effect; DC50 [18]: 35 nM |
| > 5000 | > 5000 | > 5000 | > 5000 | > 5000 | > 5000 | COc1ccc(/C=C\c2cc(OC)c(OC)c(OC)c2)cc1OC(=O)CCN1C(=O)CCC(N2Cc3c(N)cccc3C2=O)C1=O (centres undefined) |  |
| > 5000 | > 5000 | > 5000 | > 5000 | > 5000 | > 5000 | COc1ccc(/C=C\c2cc(OC)c(OC)c(OC)c2)cc1OCc1cn(CCCCCC(=O)Nc2cccc3c2C(=O)N(C2CCC(=O)NC2=O)C3=O)nn1 (centres undefined) |  |
| > 5000 | > 5000 | > 5000 | 1240 | 2760 | 1600 | COc1ccc(/C=C\c2cc(OC)c(OC)c(OC)c2)cc1OCc1cn(CCCC(=O)Nc2cccc3c2C(=O)N(C2CCC(=O)NC2=O)C3=O)nn1 (centres undefined) |  |
| > 5000 | > 5000 | > 5000 | > 5000 | > 5000 | > 5000 | COc1ccc(/C=C\c2cc(OC)c(OC)c(OC)c2)cc1OC(=O)CNc1cccc2c1C(=O)N(C1CCC(=O)NC1=O)C2=O (centres undefined) |  |
| 1310 | 8590 | 417 | 195 | 466 | 242 | COc1ccc(/C=C\c2cc(OC)c(OC)c(OC)c2)cc1OC(=O)CCCCOCCc1cn(CCCCCC(=O)Nc2cccc3c2C(=O)N(C2CCC(=O)NC2=O)C3=O)nn1 (centres undefined) |  |
